These results are taken from ChEMBL document CHEMBL2406933, “Discovery of Protein-Protein Interaction Inhibitors of Replication Protein A” (ACS Med Chem Lett, 2013).

The structures appear in SMILES notation. Active and inactive are the calls of the source. The rule behind the calls is not given here.

In one experiment the target is T1, Replication protein A 70 kDa DNA-binding subunit (Homo sapiens, UniProt P27694). As to the kind of experiment: Binding affinity to human RPA70N assessed as inhibition of interaction with FITC-Ahx-DFTADDLEELDTLAS-NH2 after 1 hr by fluorescence polarization anisotropy assay. A general note: In fluorescence polarisation assays a small probe gives low polarisation when free and higher when bound to something large.
T1 sequence (P27694 whole entry): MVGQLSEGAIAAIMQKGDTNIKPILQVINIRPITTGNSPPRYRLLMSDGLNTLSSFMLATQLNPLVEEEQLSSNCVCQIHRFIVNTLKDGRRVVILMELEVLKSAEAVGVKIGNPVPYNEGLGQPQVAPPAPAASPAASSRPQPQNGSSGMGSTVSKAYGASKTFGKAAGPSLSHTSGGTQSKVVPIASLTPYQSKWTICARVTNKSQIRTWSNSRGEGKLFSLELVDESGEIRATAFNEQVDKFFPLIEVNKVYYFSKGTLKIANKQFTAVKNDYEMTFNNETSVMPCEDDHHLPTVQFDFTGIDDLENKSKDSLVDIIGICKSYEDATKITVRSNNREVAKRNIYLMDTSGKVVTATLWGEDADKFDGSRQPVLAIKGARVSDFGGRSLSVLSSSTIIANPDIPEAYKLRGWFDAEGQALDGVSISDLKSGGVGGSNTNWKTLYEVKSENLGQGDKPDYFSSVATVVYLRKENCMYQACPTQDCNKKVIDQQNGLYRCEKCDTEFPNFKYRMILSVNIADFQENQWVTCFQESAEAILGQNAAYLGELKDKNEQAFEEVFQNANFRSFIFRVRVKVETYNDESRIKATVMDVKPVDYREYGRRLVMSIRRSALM
For the compound `O=C(O)c1sc2cc(-n3c(S)nnc3-c3ccccc3)ccc2c1Cl`, the Kd turned out to be 130 µM. On the same count and under the same terms, in the case of `O=C(O)c1sc2cc(-n3c(S)nnc3-c3cccc(Br)c3)ccc2c1Cl` it was 58 µM; in that of `O=C(O)c1cc2ccc(-n3c(S)nnc3-c3ccc(Br)c(Cl)c3)cc2s1`, 12 µM.

As to `COc1ccc(-c2nnc(SCC(=O)O)n2-c2ccc(Cl)c(Cl)c2)cc1`, the Kd is 164 µM.

Regarding `O=C(O)CSc1nnc(-c2ccc(F)cc2)n1-c1cccc(Cl)c1`, the Kd is above 250 µM. On the same count and under the same terms, to `Cc1cccc(-c2n[nH]c(=S)n2-c2ccc3cc(C(=O)O)sc3c2)c1` belongs above 250 µM. With `Cc1cccc(-c2n[nH]c(=S)n2-c2ccc3c(Cl)c(C(=O)O)sc3c2)c1`, the Kd stood at 83 µM. On the same count and under the same terms, to `O=C(O)c1cc2ccc(-n3c(-c4ccc(Br)cc4)n[nH]c3=S)cc2s1` belongs 71 µM; to `O=C(O)CSc1nnc(-c2ccccc2Br)n1-c1cccc(Cl)c1`, above 250 µM; to `O=C(O)CSc1nnc(-c2ccccc2Cl)n1-c1cccc(Cl)c1`, above 250 µM. As to `O=C(O)CSc1nnc(-c2ccc([N+](=O)[O-])cc2)n1-c1ccc(Cl)c(Cl)c1`, the Kd amounted to 178 µM. Still for that read-out and setting: in the case of `Nc1ccc(-c2nnc(SCC(=O)O)n2-c2ccc(Cl)c(Cl)c2)cc1` it was 109 µM; in that of `O=C(O)c1sc2cc(-n3c(-c4cccc(Oc5ccccc5)c4)n[nH]c3=S)ccc2c1Cl`, 63 µM. On the same count and under the same terms, to `Cc1ccccc1-c1nnc(SCC(=O)O)n1-c1cccc(Cl)c1` belongs above 250 µM; to `O=C(O)CSc1nnc(-c2ccc(F)cc2)n1-c1ccc(Cl)cc1`, above 250 µM. Regarding `O=C(O)c1sc2cc(-n3c(S)nnc3-c3c[nH]c4ccccc34)ccc2c1Cl`, the Kd was above 250 µM.

With `O=C(O)c1cc2ccc(-n3c(S)nnc3-c3ccccc3)cc2s1`, the Kd was above 250 µM. On the same count and under the same terms, in the case of `O=C(O)c1sc2cc(-n3c(S)nnc3-c3ccc(Cl)cc3)ccc2c1Cl` it was 52 µM.

As to `O=C(O)CSc1nnc(-c2sc3ccccc3c2Cl)n1-c1ccc(Cl)c(Cl)c1`, the Kd is 46 µM. On the same count and under the same terms, to `Cc1ccccc1-c1nnc(S)n1-c1ccc2c(Cl)c(C(=O)O)sc2c1` belongs 66 µM; to `Cc1ccc(-c2nnc(S)n2-c2ccc3cc(C(=O)O)sc3c2)cc1`, above 250 µM. The same measure, in the same setting: in the case of `O=C(O)c1sc2cc(-n3c(S)nnc3C3CCCCC3)ccc2c1Cl` it was 25 µM. The same measure, in the same setting: in the case of `O=C(O)c1sc2cc(-n3c(-c4ccc5ccccc5c4)n[nH]c3=S)ccc2c1Cl` it was 43 µM; in that of `Cc1cccc(-c2n[nH]c(=S)n2-c2ccc3c(Cl)c(C(=O)O)sc3c2)c1Br`, 48 µM.

For the compound `Clc1ccc(-c2nn[nH]n2)cc1`, the Kd was 1850 µM. Turning to `Cc1ccc(-c2n[nH]c(=S)n2-c2ccc3c(Cl)c(C(=O)O)sc3c2)cc1`, the Kd stood at 92 µM.

With `O=C(O)c1sc2cc(-n3c(S)nnc3-c3ccc(Cl)c(Cl)c3)ccc2c1Cl`, the Kd came to 11 µM. In the case of `O=C(O)CSc1nnc(-c2ccc(O)cc2)n1-c1ccc(Cl)c(Cl)c1`, the Kd came out at 233 µM. As for `O=C(O)c1cc2ccc(-n3c(-c4cc(Cl)cc(Cl)c4)n[nH]c3=S)cc2s1`, the Kd is 35 µM. Same read-out and setting: in the case of `O=C(O)c1sc2cc(-n3c(S)nnc3-c3ccc(F)cc3)ccc2c1Cl` it was 47 µM; in that of `Cc1cc(-c2nnc(S)n2-c2ccc3c(Cl)c(C(=O)O)sc3c2)ccc1Br`, 31 µM; in that of `O=C(O)c1sc2cc(-n3c(S)nnc3-c3ccc(Br)c(Cl)c3)ccc2c1Cl`, 11 µM. Turning to `O=C(O)CSc1nnc(-c2cc3ccccc3s2)n1-c1ccc(Cl)c(Cl)c1`, the Kd turned out to be 58 µM.

With `O=C(O)CSc1nnc(-c2ccc3ccccc3c2)n1-c1ccc(Cl)c(Cl)c1`, the Kd came out at 47 µM. For the compound `Cc1ccc2c(Cl)c(-c3nnc(SCC(=O)O)n3-c3ccc(Cl)c(Cl)c3)sc2c1`, the Kd was 18 µM. On the same count and under the same terms, to `O=C(O)c1sc2cc(-n3c(-c4ccc(Cl)c(Br)c4)n[nH]c3=S)ccc2c1Cl` belongs 16 µM; to `COc1ccc(-c2nnc(SCC(=O)O)n2-c2ccc(Cl)cc2)cc1`, above 250 µM; to `Cc1ccccc1-c1nnc(S)n1-c1ccc2cc(C(=O)O)sc2c1`, above 250 µM. On the same count and under the same terms, to `O=C(O)c1cc2ccc(-n3c(-c4cccc(Br)c4)n[nH]c3=S)cc2s1` belongs 49 µM; to `O=C(O)c1sc2cc(-n3c(-c4cc(Cl)cc(Cl)c4)n[nH]c3=S)ccc2c1Cl`, 15 µM. As for `O=C(O)c1cc2ccc(-n3c(-c4ccc(F)cc4)n[nH]c3=S)cc2s1`, the Kd is above 250 µM. With `O=C(O)c1cc2ccc(-n3c(S)nnc3-c3ccc(Cl)cc3)cc2s1`, the equilibrium dissociation constant (Kd) stood at 78 µM. With `O=C(O)CSc1nnc(-c2sc3ccccc3c2Cl)n1-c1ccccc1`, the Kd is 135 µM.

Turning to `O=C(O)c1cc2ccc(-n3c(-c4cccc(Oc5ccccc5)c4)n[nH]c3=S)cc2s1`, the Kd worked out at 104 µM. As to `COc1ccc(-c2nnc(SCC(=O)O)n2-c2cccc(Cl)c2)cc1`, the Kd is above 250 µM.

Take `O=C(O)c1cc2ccc(-n3c(S)nnc3-c3ccc(Cl)c(Cl)c3)cc2s1`: the Kd came to 22 µM. In the case of `O=C(O)c1sc2cc(-n3c(S)nnc3-c3ccc(Br)cc3)ccc2c1Cl`, the Kd came to 42 µM.

For `O=C(O)c1sc2cc(Cl)ccc2c1Cl`, the Kd was determined as 627 µM.

System in another experiment: not listed separately
Nature of the experiment: Inhibition of human RPA binding to [32P]-ssDNA overexpressed in Escherichia coli by EMSA. (Mobility shift assays separate free from complexed probe on a gel.)
With `CCOc1ccc2cc(C3CN(C(=O)CCC(=O)O)N=C3c3ccc(Br)cc3)c(Cl)nc2c1` (centres undefined), the 50% inhibitory concentration (IC50) is 40 µM.

The next experiment is filed under the species Homo sapiens. Nature of the experiment: Inhibition of full length RPA (unknown origin) binding to ssDNA up to 100 uM preincubated for 5 mins prior to substrate addition measured after 30 mins by EMSA.
In the case of `O=C(O)c1sc2cc(-n3c(S)nnc3-c3ccc(Cl)c(Cl)c3)ccc2c1Cl`, the inhibition result is “inactive”. Same read-out and setting: in the case of `O=C(O)c1sc2cc(-n3c(S)nnc3-c3ccc(Br)c(Cl)c3)ccc2c1Cl` it was “inactive”.

A further experiment addresses T1, Replication protein A 70 kDa DNA-binding subunit. As to the kind of experiment: Binding affinity to human RPA70N expressed in Escherichia coli BL21 (DE3) assessed as inhibition of interaction with FITC-Ahx-DFTADDLEELDTLAS-NH2 after 1 hr by fluorescence polarization anisotropy assay.
On to `CC(C)C1=C[C@]23CC[C@@H]4[C@](C)(CCC[C@@]4(C)C(=O)O)[C@H]2C[C@@H]1[C@@H](C(=O)O)[C@@H]3C(=O)O`, for which the dissociation constant (Kd) is 18.3 µM.

The target is the same in another experiment. As to the kind of experiment: Binding affinity to human RPA (1 to 422) containing RPA70N and RPA70NAB assessed as inhibition of interaction with FITC-Ahx-DFTADDLEELDTLAS-NH2 after 1 hr by fluorescence polarization anisotropy assay.
Regarding `O=C(O)c1sc2cc(-n3c(S)nnc3-c3ccc(Cl)c(Cl)c3)ccc2c1Cl`, the Kd was 17 µM. Same read-out and setting: in the case of `O=C(O)c1sc2cc(-n3c(S)nnc3-c3ccc(Br)c(Cl)c3)ccc2c1Cl` it was 10 µM.

A word on the Kd: it is the concentration at which binding is half-saturated. By IC50 is commonly meant the concentration that gives 50% inhibition. Low values mean greater potency in that assay, high ones weaker potency in that assay.
